Source: patent publication US9789096B2, “Methods and compositions for selective and targeted cancer therapy” (Board of Regents of the University of Texas System, priority 2013, dated 2017)
Read-outs that look alike come from different tables or passages of the source.

What was measured:
Format in all cases: cell-based, human
H2122 = assay: Cell viability dose-response, H2122; details: Homo sapiens; for AC50: NCI-H2122, Table 8, 12-point dose-response starting at 50 micromolar
Method: (§1) FIG. 6A. […] Cell viability is plotted vs. compound concentration. Compound was added to cells plated at 15% confluence in 96-well plates in RPMI-1640 media supplemented with 5% Fetal Bovine Serum and 2 mM L-Glutamine. After 4 days of incubation, ATP levels were measured using Cell Titer Glo (Promega). Data are presented as the average of 2 replicates ±SEM.
(§2) Selectivity may be measured by the half maximal inhibitory concentration (IC50), which, as used herein, is a measure of the effectiveness of a compound in killing cells. This quantitative measure indicates how much of a particular compound is needed to kill a particular cell population by half (e.g., as indicated by the amount of ATP). […] The IC50 can be determined by constructing a dose-response curve. The lower the IC50, the higher the potency, and the greater the difference between IC50 values for different cell lines (e.g., sensitive lines vs. insensitive lines, and sensitive lines vs. normal lines) the greater the selectivity. […]
(§3) With this information, we synthesized and tested a series of small molecules derived in conception from the oxalamide and chromone scaffold including N-acyl ureas, as shown in Tables 6-8. Each compound was tested in a 12-point dose-response study starting at 50 micromolar and decreasing in 3-fold increments to sub-nanomolar concentrations, in duplicate. Additionally, one or more additional cell line was tested in the same way.

HCC44 = assay: Cell viability dose-response, HCC44; details: Homo sapiens; for IC50: HCC44, Tables 3 and 4, read-out: IC50 (uM) vs indicated non-small cell lung cancer cell line HCC44; for AC50: HCC44, Table 8, 12-point dose-response starting at 50 micromolar
Method: as §1, §2, §3

H1819 = assay: Cell viability dose-response, H1819; details: Homo sapiens; for AC50: NCI-H1819, Table 8, 12-point dose-response starting at 50 micromolar
Method: as §1, §2, §3

[1] = NCI-H2122, Table 9, competitor, read-out: IC50 to H2122 cells
[2] = NCI-H2122, Tables 3 and 4, read-out: IC50 (uM) vs indicated non-small cell lung cancer cell line H2122
[3] = NCI-H1819, 12-point dose-response starting at 50 micromolar, 3-fold increments, in duplicate, read-out: toxicity data, H1819
[4] = NCI-H2122, 12-point dose-response starting at 50 micromolar, 3-fold increments, in duplicate, read-out: toxicity data, H2122
[5] = NCI-H1819, Tables 3 and 4, read-out: IC50 (uM) vs indicated non-small cell lung cancer cell line H1819

Compound | IC50 (H1819; [3]) | IC50 (H2122; [4]) | other results
O=C(Nc1nc2ccc(O)cc2s1)c1ccc(C(=O)c2ccccc2)cc1 [SW202864-1] |  |  | IC50 (H2122; [1]): 0.256 µM; IC50 (H2122; [2]): 30.8 µM; IC50 (HCC44): 38.6 µM
COc1ccc(CCNC(=O)c2cnc3ccccc3n2)cc1 [SW208051-1-A] | ≥ 49.5 µM | ≥ 49.5 µM | 
COc1ccc(CCNC(=O)c2ccc3ccccc3n2)cc1 [SW208052-1-A] | ≥ 49.5 µM | ≥ 49.5 µM | 
COc1ccc(CCNC(=O)c2cc(OC)c3ccccc3n2)cc1 [SW208053-1-A] | 32 µM | 45.9 µM | 
COc1ccc(CCNC(=O)c2cc(O)c3cccc(O)c3n2)cc1 [SW208054-1-A] | ≥ 49.5 µM | 46.3 µM | 
COc1ccc(CCNC(=O)c2ccc3cccc(F)c3n2)cc1 [SW208055-1-A] | ≥ 49.5 µM | ≥ 49.5 µM | 
COc1ccc(CCNC(=O)c2ccc3cccc(O)c3n2)cc1 [SW208056-1-A] | 29.8 µM | 30.2 µM | 
COc1ccc(CCNC(=O)c2ccc3ccc(Br)cc3n2)cc1 [SW208057-1-A] | 34.9 µM | ≥ 49.5 µM | 
COc1ccc(CCNC(=O)C(=O)N2Cc3ccccc3C2)cc1 [SW208058-1-A] | ≥ 49.5 µM | ≥ 49.5 µM | 
COc1ccc(CCNC(=O)C(=O)N2CCc3ccccc32)cc1 [SW208059-1-A] | ≥ 49.5 µM | ≥ 49.5 µM | 
COc1ccc(CCNC(=O)C(=O)N2CCc3ccccc3C2)cc1 [SW208060-1-A] | ≥ 49.5 µM | ≥ 49.5 µM | 
CCOc1ccc(CCNC(=O)C(=O)Nc2ccc(Cl)cc2)cc1 [SW208061-1-A] | ≥ 49.5 µM | ≥ 49.5 µM | 
O=C(NCc1ccccc1)NCc1ccccc1 [SW208062-1-A] |  | ≥ 49.5 µM | IC50 (H1819; NCI-H1819, read-out: toxicity data, H1819): ≥ 49.5 µM
COc1ccc(CCNC(=O)c2nc3ccccc3c(=O)[nH]2)cc1 [SW208063-1-A] | ≥ 49.5 µM | ≥ 49.5 µM | 
C#CCOc1ccc(C(=O)c2ccc(NC(=O)C(=O)NCCc3ccc(OC)cc3)cc2)cc1 [SW208108-1-A] | ≥ 49.5 µM | 0.028 µM | 
COc1ccc2nc(NC(=O)c3ccc([C@@H](N)c4ccccc4)cc3)sc2c1 [SW208109] |  |  | IC50 (H1819; [5]): 7.75 µM; IC50 (H2122; [2]): 0.067 µM
COc1ccc2nc(NC(=O)c3ccc([C@H](N)c4ccccc4)cc3)sc2c1 [SW208110] |  |  | IC50 (H1819; [5]): 5.97 µM; IC50 (H2122; [2]): 0.012 µM
COc1ccc(C(=O)c2ccc(NC(=O)C(=O)NCCc3ccc(O)cc3)cc2)cc1 [SW208117-1-A] | 15.6 µM | 0.031 µM | IC50 (H2122; [1]): 0.0244 µM
COc1ccc(CCCNC(=O)NCc2ccccc2)cc1 [SW208120-1-A] | ≥ 49.5 µM | 38.9 µM | 
COc1ccc(CCCNC(=O)NCc2ccc(Cl)cc2)cc1 [SW208121-1-A] | 5.75 µM | 3.67 µM | 
COc1ccc(CCNC(=O)C(=O)Nc2ccccn2)cc1 [SW208122-1-A] | ≥ 49.5 µM | 45 µM | 
COc1ccc(CCNC(=O)C(=O)Nc2ccc(Cl)cn2)cc1 [SW208123-1-A] | 46.3 µM | 0.348 µM | 

Compound | IC50 (H1819; [3]) | IC50 (H2122; [4]) | other results
COc1ccc(CCNC(=O)c2ccc3ccccc3c2O)cc1 [SW208124-1-A] | 34.1 µM | 36.2 µM | 
COc1ccc(CCNC(=O)c2nc3ccccc3o2)cc1 [SW208125-1-A] | ≥ 49.5 µM | 30.4 µM | 
COc1ccc(CCNC(=O)C(=O)Nc2cccc(Br)n2)cc1 [SW208126-1-A] | ≥ 49.5 µM | ≥ 49.5 µM | 
COc1ccc(CCNC(=O)C(=O)Nc2ccc(Cl)nc2)cc1 [SW208127-1-A] | ≥ 49.5 µM | 0.438 µM | 
COc1ccc(CCNC(=O)C(=O)Nc2ccc(Br)cn2)cc1 [SW208128-1-A] | ≥ 49.5 µM | 0.289 µM | 
COc1ccc(CCNC(=O)C(=O)NN2CCCCC2)cc1 [SW208129-1-A] | ≥ 49.5 µM | ≥ 49.5 µM | 
COc1ccc(CCNC(=O)C(=O)CNc2ccncc2)cc1 [SW208130-1-A] | ≥ 49.5 µM | ≥ 49.5 µM | 
COc1ccc(CCNC(=O)C(=O)NN2CCN(C)CC2)cc1 [SW208131-1-A] | ≥ 49.5 µM | ≥ 49.5 µM | 
COc1ccc(CCNC(=O)C(=O)O)cc1 [SW208132-1-A] | ≥ 49.5 µM | ≥ 49.5 µM | 
COc1ccc(CCNC(=O)C(=O)Nc2cccnc2F)cc1 [SW208133-1-A] | ≥ 49.5 µM | ≥ 49.5 µM | 
COc1ccc(CCNC(=O)C(=O)Nc2cnccc2C)cc1 [SW208134-1-A] | ≥ 49.5 µM | ≥ 49.5 µM | 
COc1ccc(CCNC(=O)C(=O)Nc2ccncc2)cc1 [SW208135-1-A] | ≥ 49.5 µM | ≥ 49.5 µM | 
COc1ccc(CCNC(=O)C(=O)Nc2cnccn2)cc1 [SW208137-1-A] | ≥ 49.5 µM | ≥ 49.5 µM | 
COc1ccc(CCNC(=O)C(=O)Nc2ccnc(C)c2)cc1 [SW208138-1-A] | ≥ 49.5 µM | ≥ 49.5 µM | 
COc1ccc(CCNC(=O)C(=O)Nc2cncc(Cl)c2)cc1 [SW208139-1-A] | ≥ 49.5 µM | 5.88 µM | 
COc1ccc(CCNC(=O)C(=O)Nc2cncc(C)c2)cc1 [SW208140-1-A] | 16.5 µM | 2.62 µM | 
COc1ccc(CCNC(=O)C(=O)Nc2ccc(C(=O)c3ccc(O)cc3)cc2)cc1 [SW208141-1-A] | ≥ 49.5 µM | ≥ 49.5 µM | 
COc1ccc(CCNC(=O)NC(=O)c2ccccc2)cc1 [SW208142-1-A] | ≥ 49.5 µM | 1.09 µM | 
COc1ccc(CCNC(=O)C(=O)Nc2cccnc2C)cc1 [SW208143-1-A] | ≥ 49.5 µM | ≥ 49.5 µM | 
COc1ccc(CCNC(=O)C(=O)Nc2cc(C)cnc2Cl)cc1 [SW208144-1-A] | ≥ 49.5 µM | ≥ 49.5 µM | 
COc1ccc(CCNC(=O)C(=O)c2ccccc2)cc1 [SW208145-1-A] | ≥ 49.5 µM | ≥ 49.5 µM | 
COc1ccc(CCNC(=O)C(=O)Oc2ccccc2)cc1 [SW208147-1-A] | ≥ 49.5 µM | 2.07 µM | 

Compound | IC50 (H1819; [3]) | IC50 (H2122; [4]) | other results
COc1ccc(CCNC(=O)C(=O)Oc2ccc(Cl)cc2)cc1 [SW208148-1-A] | ≥ 49.5 µM | 7.17 µM | 
COc1ccc(CCCNC(=O)C(=O)c2ccccc2)cc1 [SW208152-1-A] | ≥ 49.5 µM | 15.2 µM | 
COc1ccc(CCN(C)C(=O)C(=O)Nc2ccc(Cl)cc2)cc1 [SW208153-1-A] | ≥ 49.5 µM | 10.5 µM | 
CCCOc1ccc2nc(NC(=O)c3ccc(C(=O)c4ccccc4)cc3)sc2c1 [SW208186] |  |  | IC50 (H1819; [5]): 13 µM; IC50 (H2122; [2]): 0.107 µM
C#CCOc1ccc2nc(NC(=O)c3ccc(C(=O)c4ccc(OC)cc4)cc3)sc2c1 [SW208187] |  |  | IC50 (H1819; [5]): 0.697 µM; IC50 (H2122; [2]): 0.288 µM
C#CCOc1ccc2nc(NC(=O)c3ccc(C4(C(F)(F)F)N=N4)cc3)sc2c1 [SW208700-1] |  |  | IC50 (H2122; [2]): 7.92 µM; IC50 (HCC44): 49.5 µM
O=c1c(-c2ccccn2)coc2cc(OCc3cnn(-c4ccccc4)c3)ccc12 [SW208732] |  |  | AC50 (H2122): ≥ 49.5 µM; AC50 (HCC44): 49.5 µM
COc1cccc(-c2coc3cc(OCc4cnn(-c5ccccc5)c4)ccc3c2=O)c1 [SW208733] |  |  | AC50 (H2122): 0.74 µM; AC50 (HCC44): 49.5 µM
O=c1c(-c2ccccc2F)coc2cc(OCc3cnn(-c4ccccc4)c3)ccc12 [SW208734] |  |  | AC50 (H2122): ≥ 49.5 µM; AC50 (HCC44): 49.5 µM
O=c1c(-c2cccc(F)c2)coc2cc(OCc3cnn(-c4ccccc4)c3)ccc12 [SW208735] |  |  | AC50 (H2122): 0.55 µM; AC50 (HCC44): 49.5 µM
O=c1c(-c2ccc(F)cc2)coc2cc(OCc3cnn(-c4ccccc4)c3)ccc12 [SW208737] |  |  | AC50 (H2122): 0.27 µM; AC50 (HCC44): 49.5 µM
O=C(Nc1nc2c(s1)CCCC2)c1ccc(C(=O)c2ccccc2)cc1 [SW208741-1] |  |  | IC50 (H2122; [2]): 0.22 µM; IC50 (HCC44): 3.64 µM
COc1ccc(CCNC(=O)C(=O)Nc2cccc(F)n2)cc1 [SW209136-1-A] | ≥ 49.5 µM | ≥ 49.5 µM | 
O=c1c(Cc2ccc(C(F)(F)F)cc2)coc2cc(OCc3cnn(-c4ccccc4)c3)ccc12 [SW209185-1] |  |  | AC50 (H1819): 28.6 µM; AC50 (H2122): 0.085 µM
O=c1c(Cc2cccc(C(F)(F)F)c2)coc2cc(OCc3cnn(-c4ccccc4)c3)ccc12 [SW209186-1] |  |  | AC50 (H1819): 49.5 µM; AC50 (H2122): 0.047 µM
O=c1c(Cc2ccc(F)cc2)coc2cc(OCc3cnn(-c4ccccc4)c3)ccc12 [SW209188-1] |  |  | AC50 (H1819): 49.5 µM; AC50 (H2122): 0.086 µM
O=c1c(Cc2ccccc2F)coc2cc(OCc3cnn(-c4ccccc4)c3)ccc12 [SW209189-1] |  |  | AC50 (H1819): 49.5 µM; AC50 (H2122): 0.08 µM
Cc1ccc(Cc2coc3cc(OCc4cnn(-c5ccccc5)c4)ccc3c2=O)cc1 [SW209190-1] |  |  | AC50 (H1819): 49.5 µM; AC50 (H2122): 0.092 µM
O=c1c(Cc2ccc(Br)cc2)coc2cc(OCc3cnn(-c4ccccc4)c3)ccc12 [SW209191-1] |  |  | AC50 (H1819): 49.5 µM; AC50 (H2122): 0.087 µM
O=c1c(Cc2ccccc2C(F)(F)F)coc2cc(OCc3cnn(-c4ccccc4)c3)ccc12 [SW209192-1] |  |  | AC50 (H1819): 49.5 µM; AC50 (H2122): 0.028 µM
